Assay results: US12485117B2, “Compositions and methods for activating signaling through the CB1 cannabinoid receptor for treating and preventing diseases and disorders characterized by abnormal cellular accumulation of sphingolipids such as sphingomyelin” (Wylder Nation Foundation, priority 2018, dated 2025)

Experiments:
[1] = test system: cultured primary hippocampal neurons from ASMko mice; assay: Sphingomyelin levels by enzymatic assay in cultured primary hippocampal neurons from ASMko mice; assay type: cell-based, mouse
From the text: FIGS. 5A-5D show sphingomyelin and endocannabinoid levels in cultured primary hippocampal neurons and hippocampal tissue, respectively, from ASMko and wildtype mice.
Statistical significance Student's t-test, *P<0.05, **P<0.005, n=3 independent cultures.
Statistical significance Student's t-test, **P<0.005, n=3 independent cultures.
Anandamide (AEA) is the major endogenous CB1 ligand. We therefore tested whether increased levels of anandamide affected sphingomyelin levels in cultured primary hippocampal neurons from ASMko mice. Anandamide was increased in two ways: • 1. By incubating the neuronal cultures with exogenous anandamide; and • 2. By incubating the neuronal cultures with PF-04457845, which is an inhibitor of the anandamide hydrolytic enzyme FAAH. Inhibition of FAAH causes accumulation of anandamide by inhibiting FAAH-mediated hydrolyzation of anandamide.
The following experiments were performed in three independent cultures of hippocampal neurons derived from ASMko mice. Treatments were done at 11-13 days in vitro when these cells are considered mature and functional.
To set the optimal conditions for such hydrolysis in terms of concentration and time of incubation, anandamide was added to the culture medium of mature ASMko hippocampal neurons at 0, 5, 25, 50 and 100 μM for 30 minutes or 1 hour. […] The optimal conditions for SM degradation were in a range of concentration of 25-50 μM for 1 hour. […] We therefore decided to use 25 μM anandamide for 1-hour incubation time in our next experiments.
Similar to the anandamide dose/time response experiment above, we performed another dose response experiment using URB597 (URB), an inhibitor of the anandamide-hydrolyzing enzyme FAAH, to be used as reference for the other FAAH inhibitors. The experiments were done in the presence or absence of exogenous anandamide. URB was added to the culture medium of ASMko mature neurons at 0, 5, 25 and 50 μM for 1 hour with or without □□ μM anandamide.
We next compared URB efficacy to reduce SM levels with that of other FAAH inhibitors PF-04457845 (PF) and JNJ-1661010 (JNJ).

[2] = test system: permeabilized ASMko neurons; assay: Lysenin staining of SM in intracellular compartments of permeabilized ASMko neurons; assay type: cell-based, mouse; settings: 1 hour at 50 μM (FIG. 9)
Description: Statistical significance Student's t-test, *P<0.05, n=3 independent cultures.
To determine whether SM hydrolysis induced by FAAH inhibitors was taking place not only at the cell surface, but also in intracellular compartments, we performed staining with lysenin, a worm toxin that specifically binds to SM, in permeabilized ASMko neurons non-treated or treated with anandamide, URB, PF-04457845 or JNJ for 1 hour at 50 μM.

wt and ASMko mice [3] = assay: Weekly body weight during 8-week oral treatment; assay type: in vivo, mouse; settings: 0.3 mg/kg oral gavage every three days, 8 weeks
Description: We divided wt and ASMko into four groups: wt, wt+FAAHi, ASMko, ASMko+FAAHi. Each group included 14 animals with females and males in equal proportions.
(§1) Treatment started at 7 weeks of age and continued for 8 weeks. PF-04457845 was dissolved in 0.9% NaCl and delivered through oral gavage at a dose of 0.3 mg/kg every three days. We chose this dose based on the studies published by Ahn et al., (J Pharm Exp Ther 2011). Control groups received same volume of 0.9% NaCl without PF-04457845.
Behavioral analyses were performed in the last 2 weeks of treatment while still administering the drug. Then, half of the mice were sacrificed for biochemical and histological analysis and the other half continued receiving the treatment to monitor life span.

wt and ASMko mice [4] = assay: Tail Suspension Test; assay type: in vivo, mouse; settings: 0.3 mg/kg every three days
Description: FIGS. 13A-13C show the effect of PF-04457845 treatment on various behavioral functions. […] (n=14; **p<0.01, *p<0.05).
as §1
Mood alterations were monitored by the Tail Suspension Test (FIG. 13B) and by the Elevated Plus Maze test (FIG. 13C) that give an idea of depressive state and anxiety, respectively. […] PF-04457845 treatment had no effect in the behavior of wt mice.

Purkinje cells [5] = assay: Purkinje cell death by Calbindin1 staining in the cerebellum; assay type: in vivo, mouse; settings: 0.3 mg/kg every three days
Description: (§2) FIGS. 15A-15D show representative images of Purkinje cells from wildtype and ASMko mice treated or not treated with PF-04457845.
as §1
(§3) Purkinje cell death was analyzed by Calbindin1 staining in the cerebellum of wt and ASMko treated or not with PF-04457845 (FIG. 15A). Loss of Purkinje cells was prominent in non-treated ASMko mice compared to wt. […] PF-04457845 treatment had no effect on Purkinje cell survival in wt mice. We also analyzed Lysosomal size by staining Purkinje cells of the cerebellum for Lamp1 expression in samples from wt and ASMko mice treated or not treated with PF-04457845 (FIG. 15B). Lysosomal size was increased by an average 45% in the non-treated ASMko compared to wt mice consistent with sphingomyelin accumulation in these organelles. This alteration was prevented to a significant extent (35%) in the ASMko mice treated with PF.

Purkinje cells [6] = assay: Lysosomal size by Lamp1 staining of Purkinje cells; assay type: in vivo, mouse; settings: ASMko mice, 0.3 mg/kg every three days
Description: as §2, §1, §3

wt and ASMko mice [7] = assay: Acute toxicity: SM and ceramide levels in blood; assay type: in vivo, mouse
Description: We divided wt and ASMko mice of 4.5 months of age in six experimental groups: ASMko control (n=3), ASMko low dose (n=3), ASMko intermediate dose (n=3), ASMko high dose (n=3), wt control (n=3), wt high dose (n=3). PF-04457845, provided as powder, was dissolved in 0.9% NaCl and administered to mice through oral gavage. Vehicle groups received same volume of 0.9% NaCl.
After these 48 hours and immediately before termination we collected blood from mice and prepared serum by leaving blood samples 30 minutes for clotting at room temperature and by collecting the supernatant after centrifugation at 6000 rpm for 10 minutes. Following termination, mice were transcardially perfused with phosphate-buffered saline (PBS).
SM and ceramide levels were also monitored in the blood of wt and ASMko mice with and without PF-04457845 treatment as a readout of acute toxicity.

O=C(Nc1cccnn1)N1CCC(=Cc2cccc(Oc3ccc(C(F)(F)F)cn3)c2)CC1 [PF-04457845]
SM hydrolysis ([1]; 50 μM and 1 hour (FIG. 8)): promoted SM hydrolysis
sphingomyelin levels ([1]; ASMko neurons, 1 hour incubation (FIG. 5A)): reduced sphingomyelin levels
SM levels in intracellular compartments (lysenin staining) [2]: significantly reduced SM levels
body weight gain (wt and ASMko mice [3]; ASMko mice): significantly improved
body weight gain (wt and ASMko mice [3]; wt mice): not affected
behavior in Tail Suspension Test (depressive state) (wt and ASMko mice [4]; ASMko mice): normalized
behavior in Tail Suspension Test (wt and ASMko mice [4]; wt mice): no effect
Purkinje cell death (Calbindin1) (Purkinje cells [5]; ASMko mice, cerebellum): prevented cell death in a significant percentage of cells
Purkinje cell survival (Purkinje cells [5]; wt mice): no effect
increase of lysosomal size prevented (Lamp1) (Purkinje cells [6]): 35%
SM levels in blood (wt and ASMko mice [7]; ASMko mice, single doses 0.1, 1, 5 mg/kg (data not shown)): moderate dose-dependent decrease
ceramide levels in blood (wt and ASMko mice [7]; single dose of 0.1 mg/kg (data not shown)): high variability with a tendency to increase
ceramide levels in blood (wt and ASMko mice [7]; single dose of 1 mg/kg (data not shown)): decreased
ceramide levels in blood (wt and ASMko mice [7]; single dose of 5 mg/kg (data not shown)): decreased
